Source: ChEMBL document CHEMBL4138123, “Design, synthesis and biological evaluation of novel pyrazolochalcones as potential modulators of PI3K/Akt/mTOR pathway and inducers of apoptosis in breast cancer cells” (Eur J Med Chem, 2017)

Experiments:
OVCAR-3 = test: Cytotoxicity against human OVCAR3 cells assessed as cell growth at 100 uM after 48 hrs by sulforhodamine B assay relative to control; format: functional; conditions: OVCAR-3, 48 h, read-out: Activity
UO-31 = test: Cytotoxicity against human UO31 cells assessed as cell growth at 0.1 uM after 48 hrs by sulforhodamine B assay relative to control; format: functional; conditions: UO-31, 48 h, read-out: Activity
HCT-15 [1] = test: Cytotoxicity against human HCT15 cells assessed as cell growth at 0.01 uM after 48 hrs by sulforhodamine B assay relative to control; format: functional; conditions: HCT-15, 48 h, read-out: Activity
SNB-19 = test: Cytotoxicity against human SNB19 cells assessed as cell growth at 0.1 uM after 48 hrs by sulforhodamine B assay relative to control; format: functional; conditions: SNB-19, 48 h, read-out: Activity
NCI-H226 [2] = test: Cytotoxicity against human NCI-H226 cells assessed as cell growth at 10 uM after 48 hrs by sulforhodamine B assay relative to control; format: functional; conditions: NCI-H226, 48 h, read-out: Activity
CCRF-CEM = test: Cytotoxicity against human CCRF-CEM cells assessed as cell growth at 0.01 uM after 48 hrs by sulforhodamine B assay relative to control; format: functional; conditions: read-out: Activity
OVCAR-4 [3] = test: Cytotoxicity against human OVCAR4 cells assessed as cell growth at 10 uM after 48 hrs by sulforhodamine B assay relative to control; format: functional; conditions: OVCAR-4, 48 h, read-out: Activity
MCF7 [4] = test: Cytotoxicity against human MCF7 cells assessed as growth inhibition after 48 hrs by sulforhodamine B assay; format: functional; conditions: MCF7, 48 h
NCI-H226 [5] = test: Cytotoxicity against human NCI-H226 cells assessed as cell growth at 1 uM after 48 hrs by sulforhodamine B assay relative to control; format: functional; conditions: NCI-H226, 48 h, read-out: Activity
IGROV-1 = test: Cytotoxicity against human IGROV1 cells assessed as cell growth at 1 uM after 48 hrs by sulforhodamine B assay relative to control; format: functional; conditions: IGROV-1, 48 h, read-out: Activity
SF-268 = test: Cytotoxicity against human SF268 cells assessed as cell growth at 0.01 uM after 48 hrs by sulforhodamine B assay relative to control; format: functional; conditions: SF-268, 48 h, read-out: Activity
SK-MEL-28 = test: Cytotoxicity against human SK-MEL-28 cells assessed as cell growth at 10 uM after 48 hrs by sulforhodamine B assay relative to control; format: functional; conditions: SK-MEL-28, 48 h, read-out: Activity
OVCAR-8 [6] = test: Cytotoxicity against human OVCAR8 cells assessed as cell growth at 0.1 uM after 48 hrs by sulforhodamine B assay relative to control; format: functional; conditions: OVCAR-8, 48 h, read-out: Activity
OVCAR-8 [7] = test: Cytotoxicity against human OVCAR8 cells assessed as cell growth at 0.01 uM after 48 hrs by sulforhodamine B assay relative to control; format: functional; conditions: OVCAR-8, 48 h, read-out: Activity
K562 = test: Cytotoxicity against human K562 cells assessed as cell growth at 0.01 uM after 48 hrs by sulforhodamine B assay relative to control; format: functional; conditions: K562, 48 h, read-out: Activity
TK-10 [8] = test: Cytotoxicity against human TK10 cells assessed as cell growth at 0.1 uM after 48 hrs by sulforhodamine B assay relative to control; format: functional; conditions: TK-10, 48 h, read-out: Activity
MOLT-4 = test: Cytotoxicity against human MOLT4 cells assessed as cell growth at 0.1 uM after 48 hrs by sulforhodamine B assay relative to control; format: functional; conditions: MOLT-4, 48 h, read-out: Activity
NCI/ADR-RES = test: Cytotoxicity against human NCI/ADR-RES cells assessed as cell growth at 100 uM after 48 hrs by sulforhodamine B assay relative to control; format: functional; conditions: read-out: Activity
A549 = test: Cytotoxicity against human A549/ATCC cells assessed as growth inhibition after 48 hrs by sulforhodamine B assay; format: functional; conditions: A549, 48 h
HT-29 = test: Cytotoxicity against human HT-29 cells assessed as growth inhibition after 48 hrs by sulforhodamine B assay; format: functional; conditions: HT-29, 48 h
MDA-MB-231 = test: Cytotoxicity against human MDA-MB-231 cells assessed as growth inhibition after 48 hrs by MTT assay; format: functional, cell-based; conditions: MDA-MB-231, 48 h
MCF7 [9] = test: Cytotoxicity against human MCF7 cells assessed as cell growth at 0.01 uM after 48 hrs by sulforhodamine B assay relative to control; format: functional; conditions: MCF7, 48 h, read-out: Activity
MDA-MB-468 = test: Cytotoxicity against human MDA-MB-468 cells assessed as cell growth at 10 uM after 48 hrs by sulforhodamine B assay relative to control; format: functional; conditions: MDA-MB-468, 48 h, read-out: Activity
UACC-62 = test: Cytotoxicity against human UACC62 cells assessed as growth inhibition after 48 hrs by sulforhodamine B assay; format: functional; conditions: UACC-62, 48 h
SF-539 = test: Cytotoxicity against human SF539 cells assessed as growth inhibition after 48 hrs by sulforhodamine B assay; format: functional; conditions: SF-539, 48 h
UACC-257 = test: Cytotoxicity against human UACC257 cells assessed as cell growth at 10 uM after 48 hrs by sulforhodamine B assay relative to control; format: functional; conditions: UACC-257, 48 h, read-out: Activity
TK-10 [10] = test: Cytotoxicity against human TK10 cells assessed as cell growth at 100 uM after 48 hrs by sulforhodamine B assay relative to control; format: functional; conditions: TK-10, 48 h, read-out: Activity
OVCAR-8 [11] = test: Cytotoxicity against human OVCAR8 cells assessed as cell growth at 1 uM after 48 hrs by sulforhodamine B assay relative to control; format: functional; conditions: OVCAR-8, 48 h, read-out: Activity
OVCAR-4 [12] = test: Cytotoxicity against human OVCAR4 cells assessed as cell growth at 1 uM after 48 hrs by sulforhodamine B assay relative to control; format: functional; conditions: OVCAR-4, 48 h, read-out: Activity
HCT-15 [13] = test: Cytotoxicity against human HCT15 cells assessed as growth inhibition after 48 hrs by sulforhodamine B assay; format: functional; conditions: HCT-15, 48 h
U-251 = test: Cytotoxicity against human U251 cells assessed as cell growth at 0.01 uM after 48 hrs by sulforhodamine B assay relative to control; format: functional; conditions: U-251, 48 h, read-out: Activity
SK-MEL-5 = test: Cytotoxicity against human SK-MEL-5 cells assessed as cell growth at 1 uM after 48 hrs by sulforhodamine B assay relative to control; format: functional; conditions: SK-MEL-5, 48 h, read-out: Activity
HCC 2998 = test: Cytotoxicity against human HCC2998 cells assessed as growth inhibition after 48 hrs by sulforhodamine B assay; format: functional; conditions: HCC 2998, 48 h
HL-60(TB) = test: Cytotoxicity against human HL-60(TB) cells assessed as growth inhibition after 48 hrs by sulforhodamine B assay; format: functional; conditions: HL-60, 48 h
NCI-H522 = test: Cytotoxicity against human NCI-H522 cells assessed as cell growth at 100 uM after 48 hrs by sulforhodamine B assay relative to control; format: functional; conditions: NCI-H522, 48 h, read-out: Activity

`COc1cc(C(=O)/C=C/c2cc(-c3cc(OC)c(OC)c(OC)c3)n[nH]2)cc(OC)c1OC` was tested, and the growth at 100 µM (OVCAR-3) was -98%, the growth at 0.1 µM (UO-31) was 90% and the growth at 0.01 µM (HCT-15 [1]) was 95%. It also gave a growth at 0.1 µM (SNB-19) of 90%, a growth at 10 µM (NCI-H226 [2]) of -92% and a growth at 0.01 µM (CCRF-CEM) of 96%. It also gave a growth at 10 µM (OVCAR-4 [3]) of -100%, an LC50 (MCF7 [4]) of 5.22 µM and a TGI (MCF7 [4]) of 2.07 µM. The growth at 1 µM (NCI-H226 [5]) was 86%, the growth at 1 µM (IGROV-1) was 99% and the growth at 0.01 µM (SF-268) was 99%. The growth at 10 µM (SK-MEL-28) was -92%, the growth at 0.1 µM (OVCAR-8 [6]) was 94% and the growth at 0.01 µM (OVCAR-8 [7]) was 100%. For the same compound, the growth at 0.01 µM (K562) was 99%, the growth at 0.1 µM (TK-10 [8]) was 109% and the growth at 0.1 µM (MOLT-4) was 112%. It also gave a growth at 100 µM (NCI/ADR-RES) of -24%, an LC50 (concentration giving 50% net cell kill) (A549) of 59.2 µM and a TGI (A549) of 12.1 µM. For the same compound, the LC50 (HT-29) was 6.36 µM, the TGI (HT-29) was 3.37 µM and the IC50 (MDA-MB-231) was 0.7 µM. The growth at 0.01 µM (MCF7 [9]) was 95%, the growth at 10 µM (MDA-MB-468) was -90% and the LC50 (UACC-62) was 7.6 µM. For the same compound, the TGI (UACC-62) was 3.68 µM, the LC50 (concentration killing 50% of cells) (SF-539) was 6.23 µM and the TGI (SF-539) was 2.83 µM. It also gave a growth at 10 µM (UACC-257) of -93%, a growth at 100 µM (TK-10 [10]) of -99% and a growth at 1 µM (OVCAR-8 [11]) of 81%. For the same compound, the growth at 1 µM (OVCAR-4 [12]) was 79%, the LC50 (HCT-15 [13]) was 7.19 µM and the TGI (HCT-15 [13]) was 3.29 µM. It also gave a growth at 0.01 µM (U-251) of 96%, a growth at 1 µM (SK-MEL-5) of 86% and an LC50 (HCC 2998) of 6.31 µM. The TGI (HCC 2998) was 3.39 µM, the LC50 (HL-60(TB)) was greater than 100 µM and the TGI (HL-60(TB)) was 5.52 µM. It also gave a growth at 100 µM (NCI-H522) of -98%.

`COc1ccc(C(=O)/C=C/c2cc(-c3ccc(OC)c(OC)c3)n[nH]2)cc1OC` was tested, and the growth at 100 µM (OVCAR-3) was -64%, the growth at 0.1 µM (UO-31) was 91% and the growth at 0.01 µM (HCT-15 [1]) was 96%. It also gave a growth at 0.1 µM (SNB-19) of 91%, a growth at 10 µM (NCI-H226 [2]) of -46% and a growth at 0.01 µM (CCRF-CEM) of 99%. It also gave a growth at 10 µM (OVCAR-4 [3]) of -7%, a GI50 (MCF7 [4]) of 0.937 µM and a TGI (MCF7 [4]) of 8.02 µM. It also gave a growth at 1 µM (NCI-H226 [5]) of 77%, a growth at 1 µM (IGROV-1) of 94% and a growth at 0.01 µM (SF-268) of 96%. It also gave a growth at 10 µM (SK-MEL-28) of -38%, a growth at 0.1 µM (OVCAR-8 [6]) of 98% and a growth at 0.01 µM (OVCAR-8 [7]) of 99%. For the same compound, the growth at 0.01 µM (K562) was 101%, the growth at 0.1 µM (TK-10 [8]) was 96% and the growth at 0.1 µM (MOLT-4) was 101%. It also gave a growth at 100 µM (NCI/ADR-RES) of -15%, a GI50 (A549) of 2.25 µM and a TGI (A549) of 10.2 µM. For the same compound, the GI50 (HT-29) was 1.38 µM, the TGI (HT-29) was 4.95 µM and the IC50 (MDA-MB-231) was 1.1 µM. The growth at 0.01 µM (MCF7 [9]) was 85%, the growth at 10 µM (MDA-MB-468) was -80% and the GI50 (UACC-62) was 1.86 µM. It also gave a TGI (UACC-62) of 4.08 µM, a GI50 (SF-539) of 0.525 µM and a TGI (SF-539) of 2.54 µM. It also gave a growth at 10 µM (UACC-257) of -41%, a growth at 100 µM (TK-10 [10]) of -12% and a growth at 1 µM (OVCAR-8 [11]) of 80%. The growth at 1 µM (OVCAR-4 [12]) was 72%, the GI50 (HCT-15 [13]) was 1.09 µM and the TGI (HCT-15 [13]) was 5.39 µM. It also gave a growth at 0.01 µM (U-251) of 95%, a growth at 1 µM (SK-MEL-5) of 86% and a GI50 (HCC 2998) of 1.74 µM. The TGI (HCC 2998) was 3.19 µM, the GI50 (HL-60(TB)) was 2.76 µM and the TGI (HL-60(TB)) was greater than 100 µM. It also gave a growth at 100 µM (NCI-H522) of -75%.
